Experimental data as given in patent US20260083865A1, “PROSTATE SPECIFIC MEMBRANE ANTIGEN (PSMA) LIGANDS AND USE THEREOF” (priority 2022, published 2026).
Where two headings read alike, the source gives them in different places. Numbered stars: 1 amine (or outer) side, 2 acyl side, 3 side chain; on linkers, the order of the positions; unused ones are H or OH. Bridge positions count the residues as written; N and C are the ends. Square brackets hold non-standard residues; d marks the D form. Peptide text beside a SMILES is read from it. * marks the point of attachment. DOTA = O=C(O)CN1CCN(CC(=O)O)CCN(CC(=O)*)CCN(CC(=O)O)CC1; Trp(5-Cl) = N[C@@H](Cc1c[nH]c2ccc(Cl)cc12)C(=O)O; Phe(4-CF3) = N[C@@H](Cc1ccc(C(F)(F)F)cc1)C(=O)O; Phe(4-Cl) = N[C@@H](Cc1ccc(Cl)cc1)C(=O)O; Arg(Me) = CNC(=N)NCCC[C@H](N)C(=O)O; X1 = O=C(CC1CCN([*:1])CC1)[*:2]; Lys(Me) = CNCCCC[C@H](N)C(=O)O; Suc = O=C(CCC(=O)[*:2])[*:1]; Tle = CC(C)(C)[C@H](N)C(=O)O; 4Amb = NCc1ccc(C(=O)O)cc1; AEEA = NCCOCCOCC(=O)O; Aib = CC(C)(N)C(=O)O; Sar = CNCC(=O)O

Key:
[1] = target: T1, PSMA-expressing C4-2 cells (Homo sapiens, UniProt Q04609); experiment: FACS binding assay (competition with 50 nM PSM-0183); conditions: for IC50: read-out: pIC50 [C4-2] CAT (converted)
T1 construct: PSMA-expressing C4-2 cells (ATCC, Cat. No. CRL-3314) were cultured in RPMI-1640; host or cells: C4-2 cells
How it was run: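 Competition format: fluorescent tracer PSM-0183 (50 nM) displaced from PSMA on C4-2 cells by a test compound titration over 1 h at 4 °C. Bound tracer was quantified as flow-cytometric AF488 median fluorescence after washing. Four-parameter logistic fits of MFI data gave IC50 and pIC50.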

[2] = target: T2, Fc-fusion protein of human PSMA (hPSMA-Fc) (Homo sapiens, UniProt Q04609); experiment: Surface plasmon resonance assay (Biacore T200, single cycle kinetic); assay type: binding; conditions: for Kd: read-out: pKD CAT (converted)
T2 construct: purchased Acro Biosystems PSA-H5264
How it was run: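 KD, expressed as pKD, came from 1:1 Langmuir fits of reference- and buffer-blank-subtracted SPR data. The runs were single-cycle kinetics at 25° C in HBST/0.1% DMSO over human PSMA-Fc, captured to ~1000 RU on a peptide-coated CM5 surface and regenerated with 10 mM glycine pH 1.5.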

[3] = FACS binding, PSMA-expressing C4-2 cells, pIC50 category
[4] = PSMA SPR assay, hPSMA-Fc, 25° C., pKD category
[5] = pIC50 category of FACS binding, C4-2 cells
[6] = pKD category for PSMA SPR activity assay, hPSMA-Fc, 25° C.
[7] = FACS binding, C4-2 cells, category

T1 sequence (Q04609 whole entry): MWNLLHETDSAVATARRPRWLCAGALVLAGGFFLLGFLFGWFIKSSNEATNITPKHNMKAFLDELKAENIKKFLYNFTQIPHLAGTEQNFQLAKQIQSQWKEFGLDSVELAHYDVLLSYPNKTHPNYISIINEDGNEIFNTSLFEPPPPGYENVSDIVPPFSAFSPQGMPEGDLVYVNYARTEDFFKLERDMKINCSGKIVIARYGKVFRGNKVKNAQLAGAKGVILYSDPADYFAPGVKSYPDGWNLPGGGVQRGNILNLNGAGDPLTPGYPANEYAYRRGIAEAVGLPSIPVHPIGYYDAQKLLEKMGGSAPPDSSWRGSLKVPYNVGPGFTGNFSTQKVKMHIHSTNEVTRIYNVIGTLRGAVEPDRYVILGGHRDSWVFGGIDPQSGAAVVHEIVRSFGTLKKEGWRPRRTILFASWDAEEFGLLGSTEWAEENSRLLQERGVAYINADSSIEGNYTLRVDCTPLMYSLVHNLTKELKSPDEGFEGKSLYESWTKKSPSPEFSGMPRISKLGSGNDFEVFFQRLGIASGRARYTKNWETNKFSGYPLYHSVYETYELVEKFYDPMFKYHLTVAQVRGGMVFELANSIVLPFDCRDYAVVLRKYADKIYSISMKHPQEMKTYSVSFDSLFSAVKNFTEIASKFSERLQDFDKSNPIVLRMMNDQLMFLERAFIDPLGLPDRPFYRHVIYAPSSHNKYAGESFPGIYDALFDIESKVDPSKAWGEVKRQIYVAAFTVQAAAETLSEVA
T2 sequence (Q04609 44-750 limits assumed): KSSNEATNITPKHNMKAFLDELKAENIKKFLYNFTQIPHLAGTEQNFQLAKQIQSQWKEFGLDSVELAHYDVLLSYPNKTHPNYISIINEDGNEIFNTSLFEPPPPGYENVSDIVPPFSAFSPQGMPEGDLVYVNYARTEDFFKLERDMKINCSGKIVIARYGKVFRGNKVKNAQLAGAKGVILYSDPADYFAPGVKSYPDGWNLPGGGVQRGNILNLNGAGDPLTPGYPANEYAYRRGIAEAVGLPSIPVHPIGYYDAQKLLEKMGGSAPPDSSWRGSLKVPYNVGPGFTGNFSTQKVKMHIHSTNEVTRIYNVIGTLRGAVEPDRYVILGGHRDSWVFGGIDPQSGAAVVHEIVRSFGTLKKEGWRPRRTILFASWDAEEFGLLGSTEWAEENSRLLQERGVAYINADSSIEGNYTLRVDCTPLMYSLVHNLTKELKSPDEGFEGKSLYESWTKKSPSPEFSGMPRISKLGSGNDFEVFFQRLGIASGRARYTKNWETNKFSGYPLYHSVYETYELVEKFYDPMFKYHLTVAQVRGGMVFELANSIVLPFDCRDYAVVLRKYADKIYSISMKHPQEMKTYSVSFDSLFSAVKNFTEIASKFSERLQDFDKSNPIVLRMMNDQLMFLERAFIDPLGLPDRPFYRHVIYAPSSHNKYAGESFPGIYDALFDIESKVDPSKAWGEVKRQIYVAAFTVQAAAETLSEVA

| Compound | IC50 [1, 5] [nM] | Kd [2, 6] [nM] | also measured |
| --- | --- | --- | --- |
| CNCCCC[C@@H]1NC(=O)[C@@H](NC(=O)[C@H](Cc2c[nH]c3ccc(Cl)cc23)NC(=O)C(C)(C)NC(=O)[C@@H](NC(=O)CC2CCN(C(=O)CN3CCN(CC(=O)O)CCN(CC(=O)O)CCN(CC(=O)O)CC3)CC2)[C@@H](C)O)CSSC[C@@H](C(=O)N[C@H](C(=O)N[C@H](C(N)=O)[C@@H](C)O)C(C)(C)C)NC(=O)[C@H](CC(N)=O)NC(=O)C(C)(C)NC(=O)[C@H](CCCNC(=N)NC)NC1=O [PSM-0308, DOTA-Cmp-Thr-Aib-5Clw-[Cys-Lys(Me)-Arg(Me)-Aib-Asn-Cys]-Tle-Thr-NH2] ({DOTA}-[X1]T[Aib][Trp(5-Cl)]C[Lys(Me)][Arg(Me)][Aib]NC[Tle]T-NH2; disulfide 5-10) |  |  | IC50 [1, 3]: 200 to 1260 nM; Kd [2, 4]: 126 to 501 nM |
| CC(=O)N[C@H](C(=O)NC(C)(C)C(=O)N[C@@H](Cc1ccccc1)C(=O)N[C@H]1CSSC[C@@H](C(=O)N[C@H](C(=O)N[C@@H](Cc2ccccc2)C(N)=O)C(C)(C)C)NC(=O)[C@H](CC(N)=O)NC(=O)C(C)(C)NC(=O)[C@H](CCCNC(=N)N)NC(=O)[C@H](CCCCN)NC1=O)[C@@H](C)O [PSM-0556, Ac-Thr-Aib-Phe-[Cys-Lys-Arg-Aib-Asn-Cys]-Tle-Phe-NH2] (Ac-T[Aib]FCKR[Aib]NC[Tle]F-NH2; disulfide 4-9) | < 200 | < 12.6 |  |
| C[C@@H](O)[C@H](NC(=O)[C@@H](NC(=O)[C@@H]1CSSC[C@H](NC(=O)[C@H](Cc2ccccc2)NC(=O)C(C)(C)NC(=O)c2ccc(CNC(=O)CN3CCN(CC(=O)O)CCN(CC(=O)O)CCN(CC(=O)O)CC3)cc2)C(=O)N[C@@H](CCCCN)C(=O)N[C@@H](CCCNC(=N)N)C(=O)NC(C)(C)C(=O)N[C@@H](CC(N)=O)C(=O)N1)C(C)(C)C)C(N)=O [PSM-0270, DOTA-Pamb-Aib-Phe-[Cys-Lys-Arg-Aib-Asn-Cys]-Tle-Thr-NH2] ({DOTA-4Amb}-[Aib]FCKR[Aib]NC[Tle]T-NH2; disulfide 3-8) |  |  | IC50 [1, 3]: < 200 nM; Kd [2, 4]: < 12.6 nM |
| C[C@@H](O)[C@H](NC(=O)[C@@H](NC(=O)[C@@H]1CSSC[C@H](NC(=O)[C@H](Cc2ccccc2)NC(=O)C(C)(C)NC(=O)CC2CCN(C(=O)CN3CCN(CC(=O)O)CCN(CC(=O)O)CCN(CC(=O)O)CC3)CC2)C(=O)N[C@@H](CCCCN)C(=O)N[C@@H](CCCNC(=N)N)C(=O)NC(C)(C)C(=O)N[C@@H](CC(N)=O)C(=O)N1)C(C)(C)C)C(N)=O [PSM-0507, DOTA-Cmp-Aib-Pho-[Cys-Lys-Arg-Aib-Asn-Cys]-Tle-Thr-NH2] ({DOTA}-[X1][Aib]FCKR[Aib]NC[Tle]T-NH2; disulfide 4-9) | < 200 | 12.6 to 126 |  |
| InDOTA-Cmp-Thr-Aib-Pcf-[Cys-Lys(Me)-Arg(Me)-Aib-Asn-Cys]-Tle-NH2 [PSM-0519] |  |  | pIC50 [C4-2] CAT [1, 5]: A (pIC50 values >6.7); pKD CAT [2, 6]: A (pKD values >7.9) |
| CC[C@H](C)[C@H](NC(=O)CC1CCN(C(=O)CN2CCN(CC(=O)O)CCN(CC(=O)O)CCN(CC(=O)O)CC2)CC1)C(=O)NC(C)(C)C(=O)N[C@@H](Cc1ccccc1)C(=O)N[C@H]1CSSC[C@@H](C(=O)N[C@H](C(=O)N[C@H](C(N)=O)[C@@H](C)O)C(C)(C)C)NC(=O)[C@H](CC(N)=O)NC(=O)C(C)(C)NC(=O)[C@H](CCCNC(=N)N)NC(=O)[C@H](CCCCN)NC1=O [PSM-0357, DOTA-Cmp-Ile-Aib-Phe-[Cys-Lys-Arg-Aib-Asn-Cys]-Tle-Thr-NH2] ({DOTA}-[X1]I[Aib]FCKR[Aib]NC[Tle]T-NH2; disulfide 5-10) |  |  | IC50 [1, 3]: 200 to 1260 nM; Kd [2, 4]: 12.6 to 126 nM |
| C[C@@H](O)[C@H](NC(=O)[C@@H](NC(=O)[C@@H]1CSSC[C@H](NC(=O)[C@H](Cc2ccccc2)NC(=O)C(C)(C)NC(=O)CCC(=O)O)C(=O)N[C@@H](CCCCN)C(=O)N[C@@H](CCCNC(=N)N)C(=O)NC(C)(C)C(=O)N[C@@H](CC(N)=O)C(=O)N1)C(C)(C)C)C(N)=O [PSM-0577, HO-Succinyl-Aib-Phe-[Cys-Lys-Arg-Aib-Asn-Cys]-Tle-Thr-NH2] (Suc-[Aib]FCKR[Aib]NC[Tle]T-NH2; disulfide 3-8) |  |  | IC50 [1, 7]: < 200 nM; Kd ([2]; PSMA SPR assay, category): 12.6 to 126 nM |
| CCCC[C@H](NC(=O)[C@@H]1CSSC[C@H](NC(=O)[C@H](Cc2ccccc2)NC(=O)[C@H](C)NC(=O)[C@@H](NC(C)=O)[C@@H](C)O)C(=O)N[C@@H](CCCCN)C(=O)N[C@@H](CCCNC(=N)N)C(=O)N[C@H](C)C(=O)N[C@@H](CC(N)=O)C(=O)N1)C(=O)N[C@H](C(=O)N[C@@H](CC(=O)O)C(N)=O)[C@@H](C)O [PSM-0474, Ac-Thr-Ala-Phe-[Cys-Lys-Arg-ala-Asn-Cys]-Nle-Thr-Asp-NH2] | 1260 to 3160 | > 501 |  |
| C[C@@H](O)[C@H](NC(=O)[C@@H](NC(=O)[C@@H]1CSSC[C@H](NC(=O)[C@H](Cc2ccccc2)NC(=O)C(C)(C)NC(=O)[C@@H](NC(=O)COCCOCCNC(=O)CN2CCN(CC(=O)O)CCN(CC(=O)O)CCN(CC(=O)O)CC2)[C@@H](C)O)C(=O)N[C@@H](CCCCN)C(=O)N[C@@H](CCCNC(=N)N)C(=O)NC(C)(C)C(=O)N[C@@H](CC(N)=O)C(=O)N1)C(C)(C)C)C(N)=O [PSM-0505, DOTA-020c-Thr-Aib-Phe-[Cys-Lys-Arg-Aib-Asn-Cys]-Tle-Thr-NH2] ({DOTA-AEEA}-T[Aib]FCKR[Aib]NC[Tle]T-NH2; disulfide 4-9) | < 200 | < 12.6 |  |
| CC(=O)N[C@H](C(=O)NC(C)(C)C(=O)N[C@@H](Cc1ccc(C(F)(F)F)cc1)C(=O)N[C@H]1CSSC[C@@H](C(=O)N[C@H](C(=O)N[C@H](C(N)=O)[C@@H](C)O)C(C)(C)C)NC(=O)[C@H](CC(N)=O)NC(=O)C(C)(C)NC(=O)[C@H](CCCNC(=N)N)NC(=O)[C@H](CCCCN)NC1=O)[C@@H](C)O [PSM-0550, Ac-Thr-Aib-Ptf-[Cys-Lys-Arg-Aib-Asn-Cys]-Tle-Thr-NH2] (Ac-T[Aib][Phe(4-CF3)]CKR[Aib]NC[Tle]T-NH2; disulfide 4-9) | < 200 | < 12.6 |  |
| CC(=O)N[C@H](C(=O)NC(C)(C)C(=O)N[C@@H](Cc1ccccc1)C(=O)N[C@H]1CSSC[C@@H](C(=O)N[C@H](C(=O)N[C@H](C(N)=O)[C@@H](C)O)C(C)(C)C)NC(=O)[C@H](CC(N)=O)NC(=O)CN(C)C(=O)[C@H](CCCNC(=N)N)NC(=O)[C@H](CCCCN)NC1=O)[C@@H](C)O [PSM-0232, Ac-Thr-Aib-Phe-[Cys-Lys-Arg-Nmg-Asn-Cys]-Tle-Thr-NH2] (Ac-T[Aib]FCKR[Sar]NC[Tle]T-NH2; disulfide 4-9) |  |  | IC50 ([1]; FACS binding, C4-2 cells, competition with 50 nM PSM-0183, category): < 200 nM; Kd ([2]; SPR, hPSMA-Fc, single cycle kinetic, 25° C., category): < 12.6 nM |
| CC(=O)NC(C)(C)C(=O)N[C@@H](Cc1ccc(Cl)cc1)C(=O)N[C@H]1CSSC[C@@H](C(=O)N[C@H](C(=O)N[C@H](C(=O)N[C@H](CCCCNC(=O)CN2CCN(CC(=O)O)CCN(CC(=O)O)CCN(CC(=O)O)CC2)C(N)=O)[C@@H](C)O)C(C)(C)C)NC(=O)[C@H](CC(N)=O)NC(=O)C(C)(C)NC(=O)[C@H](CCCNC(=N)N)NC(=O)[C@H](CCCCN)NC1=O [PSM-0404, Ac-Aib-Pcf-[Cys-Lys-Arg-Aib-Asn-Cys]-Tle-Thr-lys(DOTA)-NH2] (Ac-[Aib][Phe(4-Cl)]CKR[Aib]NC[Tle]T[dK](DOTA)-NH2; disulfide 3-8) | < 200 | < 12.6 |  |
| CNCCCC[C@@H]1NC(=O)[C@@H](NC(=O)[C@H](Cc2ccc(C(F)(F)F)cc2)NC(=O)C(C)(C)NC(=O)[C@@H](NC(=O)CC2CCN(C(=O)CN3CCN(CC(=O)O)CCN(CC(=O)O)CCN(CC(=O)O)CC3)CC2)[C@@H](C)O)CSSC[C@@H](C(=O)N[C@H](C(N)=O)C(C)(C)C)NC(=O)[C@H](CC(N)=O)NC(=O)C(C)(C)NC(=O)[C@H](CCCNC(=N)NC)NC1=O [PSM-0549, DOTA-Cmp-Thr-Aib-Ptf-[Cys-Lys(Me)-Arg(Me)-Aib-Ass-Cys]-Tle-NH2] ({DOTA}-[X1]T[Aib][Phe(4-CF3)]C[Lys(Me)][Arg(Me)][Aib]NC[Tle]-NH2; disulfide 5-10) | < 200 | 12.6 to 126 |  |
| CC(=O)N[C@H](C(=O)NC(C)(C)C(=O)N[C@@H](Cc1c[nH]c2ccccc12)C(=O)N[C@H]1CSSC[C@@H](C(=O)N[C@H](C(=O)N[C@H](C(=O)N[C@@H](CC(=O)O)C(N)=O)[C@@H](C)O)C(C)(C)C)NC(=O)[C@H](CC(N)=O)NC(=O)C(C)(C)NC(=O)[C@H](CCCNC(=N)N)NC(=O)[C@H](CCCCN)NC1=O)[C@@H](C)O [PSM-0587, Ac-Thr-Aib-Trp-[Cys-Lys-Arg-Aib-Asn-Cys]-Tle-Thr-Asp-NH2] (Ac-T[Aib]WCKR[Aib]NC[Tle]TD-NH2; disulfide 4-9) |  |  | IC50 [1, 7]: < 200 nM; Kd ([2]; PSMA SPR assay, category): < 12.6 nM |
